Experiments:
[1] = tested on: Leishmania infantum; test: Antileishmanial activity against promastigote form of Leishmania infantum MCAN_UY_2015_mCO8 isolate assessed as decrease in parasite viability measured after 72 hrs by resazurin assay
[2] = tested on: Leishmania infantum; test: Antileishmanial activity against promastigote form of Leishmania infantum MCAN_UY_2015_bCH11 isolate assessed as decrease in parasite viability measured after 72 hrs by resazurin assay
[3] = tested on: Leishmania infantum; test: Antileishmanial activity against promastigote form of Leishmania infantum MCAN_UY_2015_gCH2 isolate assessed as decrease in parasite viability measured after 72 hrs by resazurin assay
[4] = tested on: Leishmania infantum; test: Antileishmanial activity against promastigote form of Leishmania infantum MCAN_UY_2015_bPL7 isolate assessed as decrease in parasite viability measured after 72 hrs by resazurin assay
[5] = tested on: Leishmania infantum; test: Antileishmanial activity against promastigote form of Leishmania infantum MHOM/BR/2002/LPC-RPV assessed as decrease in parasite viability measured after 72 hrs by resazurin assay
[6] = tested on: Leishmania infantum; test: Antileishmanial activity against promastigote form of Leishmania infantum MCAN_UY_2015_gPL8 isolate assessed as decrease in parasite viability measured after 72 hrs by resazurin assay
[7] = tested on: Leishmania infantum; test: Antileishmanial activity against amastigote form of Leishmania infantum MCAN_UY_2015_bPL7 isolate assessed as decrease in parasite viability measured after 72 hrs by resazurin assay; format: functional, organism-based
[8] = tested on: Leishmania infantum; test: Antileishmanial activity against amastigote form of Leishmania infantum MCAN_UY_2015_mCO8 isolate assessed as decrease in parasite viability measured after 72 hrs by resazurin assay; format: functional, organism-based
[9] = tested on: Leishmania infantum; test: Antileishmanial activity against amastigote form of Leishmania infantum MCAN_UY_2015_bCH11 isolate assessed as decrease in parasite viability measured after 72 hrs by resazurin assay; format: functional, organism-based
[10] = tested on: Leishmania infantum; test: Antileishmanial activity against amastigote form of Leishmania infantum MCAN_UY_2015_gCH2 isolate assessed as decrease in parasite viability measured after 72 hrs by resazurin assay; format: functional, organism-based
[11] = tested on: Leishmania infantum; test: Antileishmanial activity against amastigote form of Leishmania infantum MCAN_UY_2015_gPL8 isolate assessed as decrease in parasite viability measured after 72 hrs by resazurin assay; format: functional, organism-based
[12] = tested on: Leishmania infantum; test: Antileishmanial activity against amastigote form of Leishmania infantum MHOM/BR/2002/LPC-RPV assessed as decrease in parasite viability measured after 72 hrs by resazurin assay; format: functional, organism-based

| Compound | IC50 [1] [µM] | IC50 [2] [µM] | IC50 [3] [µM] | IC50 [4] [µM] | IC50 [5] [µM] | IC50 [6] [µM] | IC50 [7] [µM] | IC50 [8] [µM] | IC50 [9] [µM] | IC50 [10] [µM] | IC50 [11] [µM] | IC50 [12] [µM] |
| --- | --- | --- | --- | --- | --- | --- | --- | --- | --- | --- | --- | --- |
| CC1CS(=O)(=O)CCN1/N=C/c1ccc([N+](=O)[O-])o1 (stereo not given) [NIFURTIMOX] | 6.7 | 6.5 | 6.7 | 6.5 | 6.3 | 6 |  |  |  |  |  |  |
| C[C@@H]1[C@H](O)[C@@H](C)/C=C/C=C/C=C/C=C/C=C/C=C/C=C/[C@H](O[C@@H]2O[C@H](C)[C@@H](O)[C@H](N)[C@@H]2O)C[C@@H]2O[C@](O)(C[C@@H](O)C[C@@H](O)[C@H](O)CC[C@@H](O)C[C@@H](O)CC(=O)O[C@H]1C)C[C@H](O)[C@H]2C(=O)O [AMPHOTERICIN B] | 12.7 | 24.6 | 24.8 | 24.9 | 6.5 | 24.4 |  |  |  |  |  |  |
| CCCCCCCCCCCCCCCCOP(=O)([O-])OCC[N+](C)(C)C [MILTEFOSINE] | 3.4 | 3.8 | 4.1 | 3.6 | 5.3 | 4.1 |  |  |  |  |  |  |
| CC[C@H](C)C(=O)O[C@H]1C[C@@H](C)C=C2C=C[C@H](C)[C@H](CC[C@@H]3C[C@@H](O)CC(=O)O3)[C@H]21 [LOVASTATIN] | 25.4 | 25.3 | 25.3 | 25.3 | 12.9 | 25.4 |  |  |  |  |  |  |
| MEGLUMINE ANTIMONATE |  |  |  |  |  |  | 50.2 | 51 | 50.5 | 50.4 | 50.1 | 50.1 |

— ChEMBL document CHEMBL4699417, “Leishmania infantum isolates exhibit high infectivity and reduced susceptibility to amphotericin B” (RSC Med Chem, 2020)
